According to ChEMBL document CHEMBL2040842, “Synthesis and Biochemical Testing of 3-(Carboxyphenylethyl)imidazo[2,1-f][1,2,4]triazines as Inhibitors of AMP Deaminase” (ACS Med Chem Lett, 2010):

Assays:
[1] = Inhibition of AMP deaminase
[2] = target: AMP deaminase (Arabidopsis thaliana, UniProt O80452, V211M); assay: Inhibition of Arabidopsis recombinant AMPD deltaV211M mutant expressed in Sf9 cells
[3] = Inhibition of human recombinant AMPD1 deltaM54 mutant expressed in Sf9 cells
[4] = target: T1, AMP deaminase 3 (Homo sapiens, UniProt Q01432); assay: Inhibition of human recombinant AMPD3-1b expressed in Sf9 cells
T1 sequence (Q01432 whole entry): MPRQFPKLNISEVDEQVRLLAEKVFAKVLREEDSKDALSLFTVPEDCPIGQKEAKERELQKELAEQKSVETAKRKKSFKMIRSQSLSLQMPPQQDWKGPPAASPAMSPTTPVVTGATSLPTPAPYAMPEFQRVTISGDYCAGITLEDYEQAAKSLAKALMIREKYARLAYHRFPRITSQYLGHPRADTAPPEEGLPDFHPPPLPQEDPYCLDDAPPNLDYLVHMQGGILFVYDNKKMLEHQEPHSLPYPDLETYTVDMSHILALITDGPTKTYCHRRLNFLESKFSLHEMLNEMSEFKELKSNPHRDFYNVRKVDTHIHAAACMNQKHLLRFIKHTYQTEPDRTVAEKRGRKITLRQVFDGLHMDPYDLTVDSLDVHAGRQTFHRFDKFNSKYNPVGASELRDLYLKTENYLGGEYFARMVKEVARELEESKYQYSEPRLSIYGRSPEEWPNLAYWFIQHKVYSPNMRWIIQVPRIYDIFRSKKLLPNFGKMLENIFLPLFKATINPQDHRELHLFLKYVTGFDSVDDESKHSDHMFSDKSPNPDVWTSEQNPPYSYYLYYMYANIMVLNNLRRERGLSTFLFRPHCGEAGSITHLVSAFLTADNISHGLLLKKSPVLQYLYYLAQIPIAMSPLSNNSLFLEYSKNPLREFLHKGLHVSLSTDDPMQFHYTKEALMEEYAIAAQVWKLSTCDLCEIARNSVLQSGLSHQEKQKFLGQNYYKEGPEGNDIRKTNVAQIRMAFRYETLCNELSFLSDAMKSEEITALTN

[5] = Inhibition of human recombinant AMPD2-1A/2 expressed in Sf9 cells
[6] = target: T2, AMP deaminase 1 (Homo sapiens, UniProt P23109); assay: Inhibition of human skeletal muscle AMPD1; design: species or system Muscle tissue
T2 sequence (P23109 whole entry): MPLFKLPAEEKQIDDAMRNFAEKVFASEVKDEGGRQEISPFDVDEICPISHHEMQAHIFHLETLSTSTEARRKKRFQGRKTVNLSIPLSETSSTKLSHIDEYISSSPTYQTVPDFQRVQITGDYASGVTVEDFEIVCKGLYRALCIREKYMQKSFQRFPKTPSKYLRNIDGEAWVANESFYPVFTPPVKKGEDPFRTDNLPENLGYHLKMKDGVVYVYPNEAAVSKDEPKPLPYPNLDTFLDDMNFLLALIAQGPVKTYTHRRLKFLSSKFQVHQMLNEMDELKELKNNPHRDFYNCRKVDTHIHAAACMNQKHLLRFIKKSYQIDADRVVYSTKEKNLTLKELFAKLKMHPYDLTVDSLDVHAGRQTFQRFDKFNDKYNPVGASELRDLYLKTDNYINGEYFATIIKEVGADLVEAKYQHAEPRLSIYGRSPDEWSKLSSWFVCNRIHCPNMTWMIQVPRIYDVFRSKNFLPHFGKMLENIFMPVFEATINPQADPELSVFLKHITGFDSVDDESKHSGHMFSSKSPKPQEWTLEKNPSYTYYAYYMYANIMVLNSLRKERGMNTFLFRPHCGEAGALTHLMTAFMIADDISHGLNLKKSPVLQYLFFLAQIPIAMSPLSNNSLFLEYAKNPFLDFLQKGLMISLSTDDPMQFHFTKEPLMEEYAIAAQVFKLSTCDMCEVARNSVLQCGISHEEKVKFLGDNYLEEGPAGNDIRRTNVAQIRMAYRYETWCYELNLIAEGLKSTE

[7] = Inhibition of porcine heart AMPD3; design: species or system Sus scrofa

AMP deaminase, sequence (O80452 whole entry V211M): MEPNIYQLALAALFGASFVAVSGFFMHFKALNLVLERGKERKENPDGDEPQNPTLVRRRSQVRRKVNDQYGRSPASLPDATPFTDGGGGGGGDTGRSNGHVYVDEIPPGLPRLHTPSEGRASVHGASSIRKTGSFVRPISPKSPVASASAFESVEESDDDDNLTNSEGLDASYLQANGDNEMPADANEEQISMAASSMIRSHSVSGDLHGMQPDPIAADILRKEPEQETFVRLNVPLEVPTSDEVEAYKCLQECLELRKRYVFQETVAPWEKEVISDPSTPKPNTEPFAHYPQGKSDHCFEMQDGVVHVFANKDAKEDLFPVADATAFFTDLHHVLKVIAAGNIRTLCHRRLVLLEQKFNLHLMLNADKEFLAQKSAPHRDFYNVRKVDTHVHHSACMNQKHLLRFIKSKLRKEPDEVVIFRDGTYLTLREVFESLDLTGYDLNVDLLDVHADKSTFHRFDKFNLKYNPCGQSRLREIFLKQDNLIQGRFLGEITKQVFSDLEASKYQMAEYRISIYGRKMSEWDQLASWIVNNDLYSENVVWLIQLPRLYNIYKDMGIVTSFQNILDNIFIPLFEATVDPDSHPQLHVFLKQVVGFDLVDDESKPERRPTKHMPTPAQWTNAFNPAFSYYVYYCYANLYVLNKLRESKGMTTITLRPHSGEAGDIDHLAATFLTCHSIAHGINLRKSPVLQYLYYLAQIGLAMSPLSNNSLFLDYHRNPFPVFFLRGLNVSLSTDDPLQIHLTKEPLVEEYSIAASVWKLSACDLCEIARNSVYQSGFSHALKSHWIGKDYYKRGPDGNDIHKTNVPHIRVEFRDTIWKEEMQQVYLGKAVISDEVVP

SMILES	IC50 [2] [µM]	IC50 [3] [µM]	IC50 [4] [µM]	IC50 [5] [µM]	other results
O=P(O)(O)OC[C@H]1O[C@@H](n2cnc3c2N=CNC[C@H]3O)[C@H](O)[C@@H]1O					Ki [1]: 5.5 pM
O=C(O)c1cccc(CCc2cnc3cncnn23)c1	1400	310	370	100	
O=C(O)c1cc2c(c(CCc3cnc4cncnn34)c1)CCCC2	200	5.7	0.9	2.3	
O=C(O)c1cc(CCn2cnc3c2N=CNCC3O)c2c(c1Br)CCCC2 (stereo unspecified)					IC50 [6]: 0.5 µM
O=C(O)c1cccc(CCn2cnc3c2NC=NCC3O)c1 (stereo unspecified)					Ki [7]: 0.51 µM
